# Reference: patent publication US20050119489A1, “4-Sulfide/sulfoxide/sulfonyl-1h-pyrazolyl derivative compounds, for use in diseases associated with the 5-ht2c receptor” (priority 2001, published 2005)
# Where a name gives a salt, the structure may show the parent alone.
# Biological target: 5-HT2 receptors
# Details: cited from earlier work
Compound,pKi for the 5-HT2 receptors,"selectivity for the 5-HT2 receptors over 5-HT, receptors"
Cc1nc2sccn2c(=O)c1CCN1CCC(=C(c2ccc(F)cc2)c2ccc(F)cc2)CC1 [ritanserin],8.9,"10,000 fold"

# Biological target: T1, 5-HT2C receptor (Homo sapiens, UniProt P28335)
# T1 sequence (P28335 33-458): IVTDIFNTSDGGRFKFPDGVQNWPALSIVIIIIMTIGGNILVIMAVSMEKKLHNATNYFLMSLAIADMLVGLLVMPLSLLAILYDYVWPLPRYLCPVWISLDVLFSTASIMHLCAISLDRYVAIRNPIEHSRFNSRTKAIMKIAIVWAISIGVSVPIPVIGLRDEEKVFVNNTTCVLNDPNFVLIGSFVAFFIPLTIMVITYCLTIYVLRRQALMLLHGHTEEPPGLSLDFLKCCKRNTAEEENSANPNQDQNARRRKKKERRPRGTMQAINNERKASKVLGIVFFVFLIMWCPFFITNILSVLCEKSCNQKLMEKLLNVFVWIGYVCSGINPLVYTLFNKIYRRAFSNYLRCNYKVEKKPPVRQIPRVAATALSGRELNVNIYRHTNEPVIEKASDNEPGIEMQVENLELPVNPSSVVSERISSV
# Details: cited from earlier work
row,Compound,selectivity as 5-HT2C receptor antagonist
1,Cc1cc2c(cc1Cl)N(C(=O)Nc1ccc(Oc3cccnc3C)nc1)CC2 [SB-242084],at least 100 fold

# Tested on: not given
# Details: not given
row,melting point [°C],Compound
1,131,CCc1nn(C[C@H](C)N)c(CC)c1S(=O)(=O)c1ccc(N2CCCC(C)(C)C2=O)cc1.Cl
2,95 to 97,CCc1nn(CCNC)c(CC)c1Sc1ccc(F)cc1.O=C(O)/C=C\C(=O)O
3,120 to 122,CCc1nn(CC(C)(C)N)c(CC)c1Sc1ccc(F)cc1.O=C(O)/C=C\C(=O)O
4,162,CCc1nn(C(C)CN)c(CC)c1Sc1ccc(F)cc1.O=C(O)/C=C\C(=O)O (stereo not drawn)
5,185 to 188,"Cc1nn(CCN)c(C)c1Sc1ccccc1 (as salt: HCl) [Example 2, 2-[3,5-dimethyl-4-(phenylsulfanyl)-1H-pyrazol-1-yl]ethylamine]"
6,167,CCc1nn(C(C)C(N)=O)c(CC)c1Sc1ccc(F)cc1 (stereo not drawn) (as salt: hydrochloride)
7,148,CCc1nn(CCN)c(CC)c1Sc1nnnn1C (as salt: salt) [Example 204]
8,154,CCc1nn(CCN)c(CC)c1Sc1nccc(C(F)(F)F)n1 (as salt: salt) [Example 205]
9,84 to 86,"CCc1nn(CCNC)c(CC)c1S(=O)(=O)c1ccc(N2C(=O)CC(C)(C)C2=O)cc1 [Example 160, 1-[4-({3,5-diethyl-1-[2-(methylamino)ethyl]-1H-pyrazol-4-yl}sulfonyl)phenyl]-3,3-dimethyl-2,5-pyrrolidinedione]"
